From patent US8309550B2, “Kinase inhibitors and their use as pharmaceutical agents” (Shanghai Genomics, Inc., priority 2011, dated 2012)

Assays:
Type in all cases: biochemical
CDK1/cyclinB = target: T1, CDK1/cyclinB (Homo sapiens, UniProt P06493); test: Z'-LYTE kinase assay CDK1/cyclinB; settings: read-out: Kinase inhibition, IC50 CDK1B
T1 construct: purchased Invitrogen PV3292
Procedure: (§1) Kinase assays. The compounds from the example above were tested for their ability to inhibit kinases. Recombinant human CDK2/cyclinA (PV3267), CDK1/cyclinB (PV3292), CDK5/p35 (PV3000) and Aurora A (PV3612) were purchased from Invitrogen (Carlsbad, Calif., USA). Kinase dosage and Z′-LYTE™ substrate for each kinase assay is as follows: CDK2/cyclinA-8 ng/reaction, Ser/Thr 12 Peptide; CDK1/cyclinB-0.8 ng/reaction, Ser/Thr 12 Peptide, CDK5/p35-0.8 ng/reaction, Ser/Thr 12 Peptide, and Aurora A-16 ng/reaction, Ser/Thr 1 Peptide. All enzymatic assays were performed using Z′-LYTE™ Kinase Assay Kits and were carried out following protocols provided by Invitrogen. To prepare stock solutions, compounds were dissolved at 10 mM in 100% DMSO and stored at 4° C. in amber glass vials. Enzyme reactions were initiated by adding recombinant enzyme and Z′-LYTE™ Ser/Thr peptide substrate and ATP mixture to 384-well plates containing diluted test compounds. Kinase and corresponding peptide substrate were incubated for 1 hr at room temperature in the presence of varying amounts of test compound with reaction buffer (20 μM ATP, […] [pH 7.5], 5 mM MgCl2, 0.5 mM EGTA, 0.005% Brij-35). Development buffer was added and incubated for another one hour at room temperature. Reactions were terminated by addition of stop buffer, and fluorescence emission intensity ratio 445 nm/520 nm (excited at 400 nm) was quantified by VICTOR-3 Multilabel Reader (Perkin-Elmer, Waltham, Mass., USA). Phosphorylation was calculated from the emission ratio. IC50 was determined using Sigmoid curve-fitting software Origin 6.0 (MicroCal, LLC, Northampton, Mass., USA).

Aurora B = Aurora B (Homo sapiens, UniProt Q96GD4); test: Kinase assay Aurora B (Table I); settings: read-out: Kinase inhibition, IC50 Aurora B
Procedure: [The source words this procedure for another target and reports this target under the same test.] as §1

Aurora A = target: T2, Aurora A (Homo sapiens, UniProt O14965); test: Z'-LYTE kinase assay Aurora A; settings: read-out: Kinase inhibition, IC50 Aurora A
T2 construct: purchased Invitrogen PV3612
T2 sequence (O14965 1-403): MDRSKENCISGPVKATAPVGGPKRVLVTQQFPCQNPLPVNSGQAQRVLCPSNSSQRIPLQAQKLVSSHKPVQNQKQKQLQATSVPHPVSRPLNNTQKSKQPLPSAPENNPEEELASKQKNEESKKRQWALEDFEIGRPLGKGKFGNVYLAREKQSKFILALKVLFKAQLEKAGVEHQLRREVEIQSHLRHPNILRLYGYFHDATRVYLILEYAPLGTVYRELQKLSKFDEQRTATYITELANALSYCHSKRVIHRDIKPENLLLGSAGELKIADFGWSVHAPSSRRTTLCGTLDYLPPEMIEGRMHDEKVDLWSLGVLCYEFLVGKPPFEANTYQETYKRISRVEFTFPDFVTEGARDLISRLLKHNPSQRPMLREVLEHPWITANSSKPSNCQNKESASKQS
Procedure: as §1

CDK5/p35 = target: T3, CDK5/p35 (Homo sapiens, UniProt Q00535); test: Z'-LYTE kinase assay CDK5/p35; settings: read-out: Kinase inhibition, IC50 CDK5/p35
T3 construct: purchased Invitrogen PV3000
Procedure: as §1

CDK9T1 = CDK9T1 (Homo sapiens, UniProt P50750); test: Kinase assay CDK9T1 (Table I); settings: read-out: Kinase inhibition, IC50 CDK9T1
Procedure: [The source words this procedure for another target and reports this target under the same test.] as §1

CDK2/cyclinA = target: T4, CDK2/cyclinA (Homo sapiens, UniProt P24941); test: Z'-LYTE kinase assay CDK2/cyclinA; settings: read-out: Kinase inhibition, IC50 CDK2A
T4 construct: purchased Invitrogen PV3267
Procedure: as §1

T1 sequence (P06493 whole entry): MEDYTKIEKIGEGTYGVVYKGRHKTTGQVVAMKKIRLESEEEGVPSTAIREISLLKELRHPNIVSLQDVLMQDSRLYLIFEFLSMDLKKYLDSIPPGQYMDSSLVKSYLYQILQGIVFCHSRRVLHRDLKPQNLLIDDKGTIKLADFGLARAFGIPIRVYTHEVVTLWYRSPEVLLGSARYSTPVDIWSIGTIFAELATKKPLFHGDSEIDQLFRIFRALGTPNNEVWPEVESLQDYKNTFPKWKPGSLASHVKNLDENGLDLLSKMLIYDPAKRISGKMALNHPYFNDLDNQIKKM
T1 sequence (P14635 whole entry partner): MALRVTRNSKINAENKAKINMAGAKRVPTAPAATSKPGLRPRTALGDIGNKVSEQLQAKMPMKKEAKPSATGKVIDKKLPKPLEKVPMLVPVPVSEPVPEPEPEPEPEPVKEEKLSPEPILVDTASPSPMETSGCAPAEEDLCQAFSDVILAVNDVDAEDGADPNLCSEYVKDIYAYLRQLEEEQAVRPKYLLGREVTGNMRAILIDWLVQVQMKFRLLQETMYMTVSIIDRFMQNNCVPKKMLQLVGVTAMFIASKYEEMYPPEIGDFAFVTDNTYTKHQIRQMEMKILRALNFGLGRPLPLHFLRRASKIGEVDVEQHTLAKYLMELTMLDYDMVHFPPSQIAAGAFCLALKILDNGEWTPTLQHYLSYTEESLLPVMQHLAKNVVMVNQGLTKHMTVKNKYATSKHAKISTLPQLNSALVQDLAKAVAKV
Chain of Aurora B (Q96GD4 whole entry): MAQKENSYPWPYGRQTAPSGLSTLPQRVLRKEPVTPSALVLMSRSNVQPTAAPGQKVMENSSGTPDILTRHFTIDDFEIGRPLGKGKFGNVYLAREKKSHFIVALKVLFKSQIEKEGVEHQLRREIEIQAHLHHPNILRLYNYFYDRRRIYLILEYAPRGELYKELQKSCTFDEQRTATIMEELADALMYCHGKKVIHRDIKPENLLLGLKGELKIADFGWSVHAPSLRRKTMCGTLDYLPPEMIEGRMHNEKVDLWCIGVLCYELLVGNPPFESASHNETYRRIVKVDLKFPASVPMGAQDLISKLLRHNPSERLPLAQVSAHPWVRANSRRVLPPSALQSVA
Chain of CDK9T1 (P50750 whole entry): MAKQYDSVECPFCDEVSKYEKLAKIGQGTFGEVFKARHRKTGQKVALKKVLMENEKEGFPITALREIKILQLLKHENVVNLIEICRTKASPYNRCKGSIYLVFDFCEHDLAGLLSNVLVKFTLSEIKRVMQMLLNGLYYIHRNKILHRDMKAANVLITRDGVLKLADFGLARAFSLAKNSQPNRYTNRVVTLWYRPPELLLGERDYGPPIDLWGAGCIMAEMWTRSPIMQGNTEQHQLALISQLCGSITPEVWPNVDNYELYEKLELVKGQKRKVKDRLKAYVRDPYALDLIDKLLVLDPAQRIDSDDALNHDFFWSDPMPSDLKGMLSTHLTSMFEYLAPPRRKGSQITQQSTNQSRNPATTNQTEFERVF
Chain of CDK9T1 (O60563 whole entry partner): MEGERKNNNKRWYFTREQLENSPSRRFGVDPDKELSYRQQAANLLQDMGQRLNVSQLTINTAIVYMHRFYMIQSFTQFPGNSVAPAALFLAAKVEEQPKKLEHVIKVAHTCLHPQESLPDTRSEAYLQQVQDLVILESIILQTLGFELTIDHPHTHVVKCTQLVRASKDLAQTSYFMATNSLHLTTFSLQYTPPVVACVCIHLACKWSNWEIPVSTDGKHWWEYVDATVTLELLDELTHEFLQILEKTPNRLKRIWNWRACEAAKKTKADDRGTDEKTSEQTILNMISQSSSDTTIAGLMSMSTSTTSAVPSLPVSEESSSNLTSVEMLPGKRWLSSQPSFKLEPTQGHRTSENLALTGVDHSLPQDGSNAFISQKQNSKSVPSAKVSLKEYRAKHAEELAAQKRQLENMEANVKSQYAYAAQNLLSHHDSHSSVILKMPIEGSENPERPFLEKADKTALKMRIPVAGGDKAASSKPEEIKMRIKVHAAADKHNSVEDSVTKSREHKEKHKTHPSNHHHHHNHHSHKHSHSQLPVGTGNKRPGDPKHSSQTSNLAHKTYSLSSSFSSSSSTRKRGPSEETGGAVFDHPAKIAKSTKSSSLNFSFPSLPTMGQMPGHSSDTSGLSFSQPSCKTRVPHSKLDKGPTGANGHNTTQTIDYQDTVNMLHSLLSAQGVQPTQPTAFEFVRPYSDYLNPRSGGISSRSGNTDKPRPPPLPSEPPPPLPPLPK
T3 sequence (Q00535 whole entry): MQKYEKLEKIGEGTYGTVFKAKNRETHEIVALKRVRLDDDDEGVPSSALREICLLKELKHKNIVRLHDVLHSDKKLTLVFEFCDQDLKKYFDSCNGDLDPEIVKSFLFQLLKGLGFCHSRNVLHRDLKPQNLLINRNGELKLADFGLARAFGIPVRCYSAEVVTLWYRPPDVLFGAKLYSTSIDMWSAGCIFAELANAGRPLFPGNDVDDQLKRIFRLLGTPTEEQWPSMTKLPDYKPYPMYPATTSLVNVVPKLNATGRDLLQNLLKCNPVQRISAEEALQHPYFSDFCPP
T3 sequence (Q15078 whole entry partner): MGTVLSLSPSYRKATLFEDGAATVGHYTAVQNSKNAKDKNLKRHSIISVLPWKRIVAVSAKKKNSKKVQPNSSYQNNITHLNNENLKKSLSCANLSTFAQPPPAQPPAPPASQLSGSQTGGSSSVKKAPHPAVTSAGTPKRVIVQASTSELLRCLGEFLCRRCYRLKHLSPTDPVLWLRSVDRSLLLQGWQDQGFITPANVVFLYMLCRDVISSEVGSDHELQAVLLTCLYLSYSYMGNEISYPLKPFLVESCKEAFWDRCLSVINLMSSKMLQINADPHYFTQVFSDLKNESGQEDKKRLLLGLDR

Row | SMILES | IC50 (CDK1/cyclinB) [nM] | IC50 (Aurora B) [nM] | IC50 (Aurora A) [nM] | IC50 (CDK5/p35) [nM] | IC50 (CDK9T1) [nM] | IC50 (CDK2/cyclinA) [nM]
1 | CCn1cc(-c2ccnc(Nc3cccc(O)c3)n2)c2cccnc21 [Compound 13, 3-(4-(1-Ethyl-1H-pyrrolo[2,3-b]pyridin-3-yl)pyrimidin-2-ylamino)phenol] | 1180 | 2050 | 710 | 1960 | 450 | 61
2 | Oc1ccc(Nc2nccc(-c3cn(Cc4ccccc4)c4ccccc34)n2)cc1 [Compound 10, 4-[4-(1-Benzyl-1H-indol-3-yl)-pyrimidin-2-ylamino]-phenol] | 2360 |  | 4220 | 4370 | 670 | 1170
3 | Cc1cc(O)ccc1Nc1nccc(-c2cn(C)c3ccccc23)n1 [Compound 4, 3-Methyl-4-[4-(1-methyl-1H-indol-3-yl)-pyrimidin-2-ylamino]-phenol] | > 10000 | > 10000 | > 10000 | > 10000 |  | 1770
4 | CCn1cc(-c2ccnc(Nc3ccc(O)cc3)n2)c2ccnc(Cl)c21 [Compound 70, 4-(4-(7-Chloro-1-ethyl-1H-pyrrolo[2,3-c]pyridin-3-yl)pyrimidin-2-ylamino)phenol] | 190 | > 10000 | 2460 | 350 | 95 | 16
5 | CCn1cc(-c2ccnc(Nc3cccc([N+](=O)[O-])c3)n2)c2cccnc21 [Compound 14, 4-(1-Ethyl-1H-pyrrolo[2,3-b]pyridin-3-yl)-N-(3-nitrophenyl)pyrimidin-2-amine] | > 10000 | > 10000 | 1340 | > 10000 | 790 | 1070
6 | Cc1cc(O)cc(C)c1Nc1nccc(-c2cn(C)c3ccccc23)n1 [Compound 5, 3,5-Dimethyl-4-[4-(1-methyl-1H-indol-3-yl)-pyrimidin-2-ylamino]-phenol] | > 10000 | > 10000 | > 10000 | > 10000 |  | ≥ 100000
7 | Oc1cccc(Nc2nccc(-c3cn(Cc4ccccc4)c4ccccc34)n2)c1 [Compound 11, 3-[4-(1-Benzyl-1H-indol-3-yl)-pyrimidin-2-ylamino]-phenol] | 4820 | > 10000 | 4670 | > 10000 | 1170 | 4050
8 | CCn1cc(-c2ccnc(Nc3ccc(O)cc3)n2)c2cccnc21 [Compound 12, 4-(4-(1-Ethyl-1H-pyrrolo[2,3-b]pyridin-3-yl)pyrimidin-2-ylamino)phenol] | 4110 | 750 | 270 | 5540 | > 10000 | 172
9 | CCn1cc(-c2ccnc(Nc3cccc(O)c3)n2)c2ccnc(Cl)c21 [Compound 72, 3-(4-(7-Chloro-1-ethyl-1H-pyrrolo[2,3-c]pyridin-3-yl)pyrimidin-2-ylamino)phenol] | 90 | 930 | 800 | 100 | 79 | 4.3
10 | CCn1cc(-c2ccnc(Nc3ccc(O)cc3)n2)c2ccccc21 [Compound 6, 4-[4-(1-Ethyl-1H-indol-3-yl)-pyrimidin-2-ylamino]-phenol] | 1210 | 470 | 1050 | 522 | 26 | 3
11 | CCCn1cc(-c2ccnc(Nc3ccc(S(N)(=O)=O)cc3)n2)c2cccnc21 [Compound 23, 4-(4-(1-Propyl-1H-pyrrolo[2,3-b]pyridin-3-yl)pyrimidin-2-ylamino)benzenesulfonamide] | 30 | 5800 | 4900 | 100 | 52 | 10
12 | CCCn1cc(-c2ccnc(Nc3cccc(C(=O)N4CCN(C)CC4)c3)n2)c2cccnc21 [Compound 34, (4-Methylpiperazin-1-yl)(3-(4-(1-propyl-1H-pyrrolo[2,3-b]pyridin-3-yl)pyrimidin-2-ylamino)phenyl)methanone] | 1570 | > 10000 | > 10000 | 620 | 350 | 1340
13 | CCn1cc(-c2ccnc(Nc3c(C)cc(O)cc3C)n2)c2ccccc21 [Compound 9, 4-[4-(1-Ethyl-1H-indol-3-yl)-pyrimidin-2-ylamino]-3,5-dimethyl-phenol] | > 10000 | > 10000 | > 10000 | > 10000 | > 10000 | > 100000
14 | CCn1cc(-c2ccnc(Nc3cccc(O)c3)n2)c2ccccc21 [Compound 7, 3-[4-(1-Ethyl-1H-indol-3-yl)-pyrimidin-2-ylamino]-phenol] | 1340 | 1010 | 5840 | 375 | 29 | 2
15 | Cn1cc(-c2ccnc(Nc3ccc(O)cc3Cl)n2)c2ccccc21 [Compound 3, 3-Chloro-4-(4-(1-methyl-1H-indol-3-yl)pyrimidin-2-ylamino)phenol] | > 10000 | > 10000 | > 10000 | > 10000 | > 10000 | 7530
16 | CCn1cc(-c2ccnc(Nc3ccc(O)cc3C)n2)c2ccccc21 [Compound 8, 4-[4-(1-Ethyl-1H-indol-3-yl)-pyrimidin-2-ylamino]-3-methyl-phenol] | 8950 | > 10000 | > 10000 | > 10000 | > 10000 | 411
